Test results as given in patent EP0550903A1, “Quinolone- and naphthyridone carboxylic acid derivatives as antibacterial agents” (BAYER AG, priority 1992, dated 1993).
Values after ≈ are worked out from the molar mass of the structure shown. Like-named read-outs stand apart in the source and are kept apart here.

Experiments:
Staphylococcus aureus = experiment: Efficacy in Staph. aureus infection of the mouse; format: in vivo, Maus; settings: mouse infected with Staphylococcus aureus
Bacteroides fragilis = experiment: MIC, agar dilution test (Multipoint-Inokulator Denley, Isosensitest-Agar); format: cell-based
Bact. thetaiotaomicron = experiment: as above; format: cell-based; settings: Bacteroides thetaiotaomicron, DSM2079, Stamm DSM 2079, read-out: MHK-Werte
Clostridium perfringens = experiment: microbe, parasite or virus in culture; format: cell-based; settings: read-out: MHK-Werte
[1] = DSM2151, Stamm DSM 2151, Isosensitest-Agar, read-out: MHK-Werte
[2] = Stamm ES 25, Isosensitest-Agar, read-out: MHK-Werte

SMILES	Wirksamkeit in der Staph. aureus-Infektion an der Maus (Staphylococcus aureus; p.o.)	Wirksamkeit in der Staph. aureus-Infektion an der Maus (Staphylococcus aureus; s.c.)	MIC (Bact. thetaiotaomicron) [µg/mL]	other results
CC(=O)CCN1CCO[C@H]2CN(c3c(F)cc4c(=O)c(C(=O)O)cn(C5CC5)c4c3F)C[C@H]21 (racemic) [Beispiel 31, 1-Cyclopropyl-6,8-difluor-1,4-dihydro-4-oxo-7-(cis-5-[3-oxo-1-butyl]-2-oxa-5,8-diazabicyclo[4.3.0]non-8-yl)-3-chinolincarbonsäure]	10 mg/kg	10 mg/kg	–	–
O=C(O)c1cn(C2CC2)c2c(Cl)c(N3C[C@@H]4CCCN[C@@H]4C3)c(F)cc2c1=O [A, 8-Chlor-1-cyclopropyl-7-([S,S]-2,8-diazabicyclo[4.3.0]non-8-yl)-6-fluor-1,4-dihydro-4-oxo-3-chinolincarbonsäure]	–	–	0.5 (≈ 1.23 µM)	MIC (Bacteroides fragilis; [1]): 0.25 µg/mL (≈ 0.616 µM); MIC (Bacteroides fragilis; [2]): 0.25 µg/mL (≈ 0.616 µM)
CN1CCC2CN(c3c(F)cc4c(=O)c(C(=O)O)cn(C5CC5)c4c3Cl)CC21 (stereo not shown) [B]	–	–	2 (≈ 4.93 µM)	MIC (Bacteroides fragilis; [1]): 0.5 µg/mL (≈ 1.23 µM); MIC (Bacteroides fragilis; [2]): 1 µg/mL (≈ 2.46 µM); MIC (Clostridium perfringens): 0.5 µg/mL (≈ 1.23 µM)
CC(=O)CCN1CCC[C@H]2CN(c3c(F)cc4c(=O)c(C(=O)O)cn(C5CC5)c4c3F)C[C@H]21 [Beispiel 27, 1-Cyclopropyl-6,8-difluor-1,4-dihydro-4-oxo-7-([S,S]-2-[3-oxo-1-butyl]-2,8-diazabicyclo[4.3.0]non-8-yl)-3-chinolincarbonsäure]	10 mg/kg	2,5 mg/kg	–	–
CC(=O)CCN1CCC[C@H]2CN(c3c(F)cc4c(=O)c(C(=O)O)cn(C5CC5)c4c3Cl)C[C@H]21 [Beispiel 29A, 8-Chlor-1-cyclopropyl-6-fluor-1,4-dihydro-4-oxo-7-([S,S]-2-[3-oxo-1-butyl]-2,8-diazabicyclo[4.3.0]non-8-yl)-3-chinolincarbonsäure]	5 mg/kg	5 mg/kg	–	–
N#CCCN1CCC[C@H]2CN(c3c(F)cc4c(=O)c(C(=O)O)cn(C5CC5)c4c3Cl)C[C@H]21 [Beispiel 33, 8-Chlor-7-([S,S]-2-[2-cyanoethyl]-2,8-diazabicyclo[4.3.0]non-8-yl)-1-cyclopropyl-6-fluor-1,4-dihydro-4-oxo-3-chinolincarbonsäure]	10 mg/kg	5 mg/kg	–	–
COC(=O)C=C(C(=O)OC)N1CCC[C@H]2CN(c3c(F)cc4c(=O)c(C(=O)O)cn(C5CC5)c4c3Cl)C[C@H]21 [Beispiel 35, 8-Chlor-1-cyclopropyl-7-[2-(1,2-bis-methoxycarbonyl-vinyl)-1S,6S-2,8-diazabicyclo[4.3.0]non-8-yl]-6-fluor-1,4-dihydro-4-oxo-3-chinolincarbonsäure]	2,5 mg/kg	2,5 mg/kg	–	–
O=C(O)c1cn(C2CC2)c2cc(N3CCNCC3)c(F)cc2c1=O [Ciprofloxacin]	80 mg/kg	80 mg/kg	8 (≈ 24.1 µM)	MIC (Bacteroides fragilis; DSM2151, read-out: MHK-Werte): 4 µg/mL (≈ 12.1 µM); MIC (Bacteroides fragilis; read-out: MHK-Werte): 8 µg/mL (≈ 24.1 µM)
